# Data: patent US20190083420A1, “METHODS OF USING (2R, 6R)-HYDROXYN[…] (2S, 6S)-HYDROXYN[…] THE TREATMENT OF DEPRESSION, ANXIETY, ANHEDONIA, FATIGUE, SUICIDAL IDEATION, AND POST TRAUMATIC STRESS DISORDERS” (The Uinited States of America, as represented by the …, priority 2016, published 2019)
# Entries after “also recorded” stand apart in the source; their conditions may differ.
# Key:
# Male C57BL/6J mice = assay: Chronic social defeat stress and social interaction/avoidance test; format: in vivo; settings: for locomotor activity and total compartmental crosses in the social interaction test: following chronic social defeat stress; for reversal of social interaction deficits / social avoidance induced by chronic social defeat stress: single i.p. injection, re-test 24 hours following treatment
# Method: Male C57BL/6J mice underwent a 10-day chronic social defeat stress paradigm. Briefly, experimental mice were introduced to the home cage (43 cm length×11 cm width×20 cm height) of a resident aggressive retired CD-1 breeder, prescreened for aggressive behaviors, for 10 min. Following this physical attack phase, mice were transferred and housed in the opposite side of the resident's cage divided by a Plexiglas perforated divider, in order to maintain continuous sensory contact. This process was repeated for 10 days. Experimental mice were introduced to a novel aggressive CD-1 mouse each day. On day 11, test mice were screened for susceptibility in a social interaction/avoidance choice test. The social interaction apparatus consisted of a rectangular three-chambered box (mouse conditioned-place preference chamber; Stoelting Co., Wood Dale, Ill., USA), see FIG. 7b) comprised of two equal sized end-chambers and a smaller central chamber. The social interaction/avoidance choice test consisted of two 5-min phases. During the habituation phase, mice explored the empty apparatus. During the test phase, two small wire cages (Galaxy Cup, Spectrum Diversified Designs, Inc., Streetsboro, Ohio, USA), one containing a “stranger” CD-1 mouse and the other one empty, were placed in the far corners of each chamber. The time spent interacting (nose within close proximity of the cage) with the “stranger” mouse versus the empty cage was analysed using TopScan video tracking software (CleverSys, Reston, Va.). Locomotor activity (total distance moved over 5 min) and number of total crosses into and out of the central chamber were also measured. The social interaction ratio was calculated by dividing the time spent interacting with the “stranger” by the time spent with the empty cage. Mice having a social interaction ratio higher than 1.0 were considered resilient and mice with a social interaction ratio lower than 1.0 were considered susceptible. On day 13 resilient and susceptible mice received an i.p. injection of either saline, (R,S)-KET (20 mg/kg; chosen based upon dose previously effective in C57BL/6J mice^31), MK-801 (0.1 mg/kg) or (2R,6R)-HNK (20 mg/kg). Mice were re-tested for social interaction/avoidance on […] (24 hours following treatment).
# mice = assay: Drug discrimination in ketamine-trained mice; format: in vivo; settings: for response rate of overall lever pressing per sec: drug discrimination paradigm
# Method: Mice were food restricted until they reached 85% of their initial body weight and were maintained at 85% throughout the duration of the experiment Animals were trained to lever press for food (20 mg sucrose pellets; TestDiet, St. Luis, Mo., USA) in standard two lever-operant conditioning chambers (Coulbourn Instruments, Whitehall, Pa., USA), under a fixed-ratio 5 of reinforcement (FR5) in daily 30-min sessions. When stable responding was succeeded over 3 consecutive sessions (average of 40 training sessions), mice were trained to discriminate ketamine (10 mg/kg) from saline (7.5 ml/kg) under a double alternation schedule (e.g., ketamine, ketamine, saline, saline). The subjects received either ketamine (10 mg/kg; i.p.) or saline (7.5 ml/kg) 15 minutes prior to the start of the 30-minute session. […] Drug discrimination test sessions were conducted when mice reached the following criteria: (1) first FR5 completed on the correct lever, and (2)≥85% correct lever responding over the entire session. During the test sessions mice were administered with saline (7.5 ml/kg), ketamine (10 mg/kg), phencyclidine (PCP; 3 mg/kg) or (2R,6R)-HNK (10 and 50 mg/kg). […] Recording of responses and pellet delivery were controlled and calculated by an automated computer system (Graphic State v3.1; Coulbourn Instruments, Whitehall, Pa., USA).
# mTOR = assay: Western blot of synaptoneurosomes, mTOR and phosphorylated mTOR; format: in vivo, mice
# Method: (§1) To purify synaptoneurosomes, mouse prefrontal cortex or hippocampus were dissected and homogenized in Syn-PER Reagent (ThermoFisher Scientific, Waltham, Mass., USA; Cat #87793) with 1× protease and phosphatase inhibitor cocktail (ThermoFisher Scientific, Waltham, Mass., USA; Cat #78440). The homogenate was centrifuged for 10 min at 1,200×g at 4° C. The supernatant was centrifuged at 15,000×g for 20 min. After centrifugation, the supernatant the pellet (synaptosomal fraction) was re-suspended and sonicated in N-PER Neuronal Protein Extraction Reagent (ThermoFisher Scientific, Waltham, Mass., USA; Cat #87792). For total homogenous tissue lysates, mouse prefrontal cortex or hippocampus were homogenized and sonicated in N-PER Neuronal Protein Extraction Reagent with 1× protease & phosphatase inhibitor cocktail) Protein concentration was determined via the BCA protein assay kit (ThermoFisher Scientific, Waltham, Mass., USA; Cat #23227).
# (§2) For western blotting, equal amount of proteins (10-40 μg as optimal for each antibody) for each sample were loaded into NuPage 4-12% Bis-Tris gel for electrophoresis. Nitrocellulose membranes with transferred proteins were blocked with 5% milk in TBST (TBS+0.1% Tween-20) for 1 hour and kept with primary antibodies overnight at 4° C. The following primary antibodies were used: phospho-eEF2 (Cell Signaling Technology, Danvers, Mass., USA; Cat #2331), total eEF2 (Cell Signaling Technology, Danvers, Mass., USA; Cat #2332), phospho-mTOR (Cell Signaling Technology, Danvers, Mass., USA; Cat #2971), total mTOR (Cell Signaling Technology, Danvers, Mass., USA; Cat #2983), GluR1 (Cell Signaling Technology, Danvers, Mass., USA; […]), GluR2 (Cell Signaling Technology, Danvers, Mass., USA; Cat #13607), BDNF (Santa Cruz Biotechnology, Dallas, Tex., USA; Cat # sc-546), and GAPDH (Abcam, Cambridge, Mass., USA; Cat # ab8245). The next day, blots were washed three times in PBST and incubated with horseradish peroxidase conjugated anti-mouse or anti-rabbit secondary antibody (1:5000 to 1:10000) for 1 hour. After final three washes with TBST, bands were detected using enhanced chemiluminescence (ECL) with the Syngene Imaging System (G:Box ChemiXX9). After imaging, the blots then were incubated in the stripping buffer (ThermoFisher Scientific, Waltham, Mass., USA; Cat #46430) for 10-15 min at room temperature followed by three time washes with TBST. The stripped blots were washed in blocking solution for 1 hour and incubated with the primary antibody directed against total levels of the respective protein or GAPDH for loading control. Densitometric analysis of phospho- and total immunoreactive bands for each protein was conducted using Syngene's GenTools software Immunoreactivity was normalized to the saline treated control group for each protein.
# GluR1 and GluR2 = assay: Western blot of synaptoneurosomes, GluR1 and GluR2 levels; format: in vivo, mice
# Method: as §1, §2
# BDNF = assay: Western blot of synaptoneurosomes, BDNF levels; format: in vivo, mice; settings: for mBDNF levels: hippocampus, 24 hours post-administration, 10 mg/kg; for proBDNF / mBDNF levels: prefrontal cortex
# Method: as §1, §2
# [1] = hippocampus, 1- or 24-hours post-injection, 10 mg/kg
compound,measurement,setting,value
"CNC1(c2ccccc2Cl)CCCCC1=O (racemic) [ketamine, (R,S)-ketamine, reference compound]",locomotor activity and total compartmental crosses in the social interaction test,Male C57BL/6J mice,without affecting
same,reversal of social interaction deficits / social avoidance induced by chronic social defeat stress,Male C57BL/6J mice,reversed social defeat stress-induced social avoidance behaviors
same,response rate of overall lever pressing per sec,mice,not changed
same,mTOR / phosphorylated mTOR synaptoneurosome levels,mTOR; [1],not observed
same,mTOR / phosphorylated mTOR synaptoneurosome levels,"mTOR; hippocampus, 1- or 24-hours post-injection, 10 mg/kg, listed as (R,S)-ketamine",did not alter synaptoneurosome levels of mTOR or phosphorylated mTOR
same,mTOR / phosphorylated mTOR synaptoneurosome levels,mTOR; prefrontal cortex,not observed
same,mTOR / phosphorylated mTOR synaptoneurosome levels,"mTOR; prefrontal cortex, listed as (R,S)-KET",did not alter
same,GluR1 and GluR2 levels in hippocampal synaptoneurosomes,GluR1 and GluR2; 1 hour post-treatment,"neither ketamine nor (2R,6R)-HNK administration altered"
same,GluR1 and GluR2 levels in hippocampal synaptoneurosomes,GluR1 and GluR2; 24 hours post-treatment,both increased GluR1 and GluR2 levels
same,GluR1/GluR2 levels in prefrontal cortex synaptoneurosomes,"GluR1 and GluR2; listed as (R,S)-KET",did not alter synaptoneurosome levels of GluR1/GluR2
same,mBDNF levels,BDNF,increased hippocampal BDNF
same,mBDNF levels,"BDNF; listed as (R,S)-ketamine",increased mBDNF levels
same,proBDNF / mBDNF levels,BDNF,did not alter
"N[C@@]1(c2ccccc2Cl)CCC[C@@H](O)C1=O [(2R,6R)-HNK, (2R,6R)-2-amino-2-(2-chlorophenyl)-6-hydroxycyclohexanone]",locomotor activity and total compartmental crosses in the social interaction test,Male C57BL/6J mice,not associated with changes
same,reversal of social interaction deficits / social avoidance induced by chronic social defeat stress,Male C57BL/6J mice,reversed social interaction deficits
same,response rate of overall lever pressing per sec,mice,not changed
same,ketamine-associated discriminative stimulus,mice; mice trained to discriminate ketamine (10 mg/kg) from saline,did not induce; also recorded: did not produce ketamine-related discrimination responses; also recorded: did not produce discriminative stimulus behaviors
same,mTOR / phosphorylated mTOR synaptoneurosome levels,mTOR; [1],not observed
same,mTOR / phosphorylated mTOR synaptoneurosome levels,"mTOR; hippocampus, 1- or 24-hours post-injection, 10 mg/kg, listed as (2R,6R)-hydroxynorketamine",did not alter synaptoneurosome levels of mTOR or phosphorylated mTOR
same,mTOR / phosphorylated mTOR synaptoneurosome levels,mTOR; prefrontal cortex,not observed; also recorded: did not alter
same,GluR1 and GluR2 levels in hippocampal synaptoneurosomes,GluR1 and GluR2; 1 hour post-treatment,"neither ketamine nor (2R,6R)-HNK administration altered"
same,GluR1 and GluR2 levels in hippocampal synaptoneurosomes,GluR1 and GluR2; 24 hours post-treatment,both increased GluR1 and GluR2 levels
same,GluR1/GluR2 levels in prefrontal cortex synaptoneurosomes,GluR1 and GluR2,did not alter synaptoneurosome levels of GluR1/GluR2
same,mBDNF levels,"BDNF; listed as (2R,6R)-hydroxynorketamine",increased mBDNF levels
same,proBDNF / mBDNF levels,BDNF,did not alter
